According to US20050009151A1, “Methods for the stereospecific and enantiomeric enrichment of beta-amino acids” (Pharmacia Corporation, priority 2003, published 2005):
Each block holds one molecule with its values, some of them ahead of it.

Legend:
Type in all cases: biochemical
[1] = test system: β-aminotransferase enzyme from Variovorax paradoxus; experiment: D-β-aminotransferase amino donor specificity; conditions: for substrate for the enzyme (amino donor): 2 mg/ml amino donor, 10 mg/ml α-ketoglutarate, 1 hour, 37° C.
Protocol: The same preparation of semi-purified β-aminotransferase enzyme from Variovorax paradoxus was then assayed using a-ketoglutarate as the keto acceptor, in an assay consisting of 100 mM potassium phosphate, 10 mg/ml α-ketoglutarate, 2 mg/ml amino donor and 0.1 mM pyridoxal phosphate, at pH 8.0. The reactions were run at 37° C. with mild stirring for 1 hour. At 1 hour reaction time, 0.1 ml samples were withdrawn, acidified with addition of 0.1 ml 0.1N HCl, and centrifuged. The supernatant solution was collected into HPLC sample vials. Conversion of an amino acid to the corresponding ketone was quantified using reverse phase HPLC. The following amino acids (as an amino donor) were screened for activity: α-(D)-phenylalanine, α-(L)-phenylalanine, β-(D)-phenylalanine, β-(L)-phenylalanine, (D)-3-amino-5-phenylpentanoic acid, and (L)-3-amino-5-phenylpentantoic acid.

[2] = test system: Variovorax paradoxus β-aminotransferase; experiment: Resolution of substrates with Variovorax paradoxus β-aminotransferase
Protocol: […] Reactions were typically run at 1 ml scale with gentle shaking at 26° C.
(§1) 10 ul of 2N HCl was added to a plastic screw capped vial and 90ul of sample was then added. The pH of the mixture confirmed to be below 4 and the mixture was centrifuged in a microcentrifuge at maximum speed for about 2 minutes to remove precipitated materials.
(§2) Samples were derivatized using Marfey's reagent, N•-(2,4-dinitro-5-fluorophenyl)-L-alaninamide. A stock solution of 10 mg/mL in acetone of this reagent was prepared. Either 20 or 40 ul of bioconversion sample was added to 20 ul 1.3 M KHCO3. To this was added 80 ul of the stock reagent solution, the vial sealed tightly, and heated at 70° C. for 10 minutes. As needed, after cooling to room temperature, the heated samples were centrifuged to remove solids. The supernatants were analyzed using an Eclipse XDB-C8 column, 4.6×150 mm, eluting with methanol gradient in water, from 50% methanol to 100% methanol. Both solvents were acidified with 0.1% trifluoroacetic acid.
(§3) For resolution experiments, the area of the peak consumed (converted to keto acid) was compared to the area remaining of the unconsumed peak, on the assumption that none was converted.

[3] = test system: β-aminotransferase from Alcaligenes eutrophus; experiment: Resolution of substrates with cell lysate from Alcaligenes eutrophus
Protocol: (§4) A buffer consisting of 0.3M Tricine, 15 mM MgSO4, enough pyridoxal phosphate to impart a pale yellow color and 0.3M sodium glutamate (for deamination reactions) or 0.3 M 2-ketoglutarate monopotassium salt (for synthesis reactions) was prepared.
(§5) One part buffer was combined with two parts lysate and this mixture was then added to pre-weighed substrate to give a concentration of 1 mg/ml substrate. Reactions were typically run at 1 ml scale with gentle shaking at 26° C.
as §1, §2, §3

[4] = test system: β-aminotransferase enzyme from Variovorax paradoxus (CC-KGbPHe-I14); experiment: D-β-aminotransferase keto acid substrate specificity; conditions: rate of conversion of D-β-phenylalanine to 3-keto-3-phenylpropionic acid as percent of the rate using α-ketoglutarate; 10 mg/ml α-keto acceptor, 1 hour, 37° C.
Protocol: Semi-purified β-aminotransferase enzyme from Variovorax paradoxus (CC-KGbPHe-I14) was assayed using D-β-phenylalanine as the amino donor, in an assay consisting of 100 mM potassium phosphate, 2 mg/ml DL-β-phenylalanine, 10 mg/ml α-keto acceptor and 0.1 mM pyridoxal phosphate, at pH 8.0. The reactions were run at 37° C. with mild stirring for 1 hour. At 1 hour reaction time, 0.1 ml samples were withdrawn, acidified with addition of 0.1 ml 0.1N HCl, and centrifuged. The supernatant solution was collected into HPLC sample vials. Conversion of DL-β-phenylalanine to 3-keto-3-phenylpropionate was quantified using reverse phase HPLC. The following keto acids were screened for activity: α-ketoglutaric acid, oxaloacetic acid, pyruvic acid, 3-oxoadipic acid, 2-oxoadipic acid, 1,3-acetonedicarboxylic acid, and 4-ketopimelic acid. The relative rates of conversion of D-β-phenylalanine to 3-keto-3-phenylpropionic acid using the various keto acceptors is reported as percent of the rate using α-ketoglutarate, the experimentally determined preferred acceptor.

[5] = test system: Alcaligenes eutrophus L-β-aminotransferase; experiment: Substrate specificity of Alcaligenes eutrophus L-β-aminotransferase (crude cell homogenate); conditions: for MSB Culture Extract D(S)-b-Phe consumed at t = 1 Hr / MSB Culture Extract L(R)-b-Phe consumed at t = 1 Hr: cells grown in MSB; for MSB Culture Extract D(S)-b-Phe consumed at t = 1 Hr / MSB Culture Extract L(R)-b-Phe consumed at t = 1 Hr / NB Culture Extract of Alcaligenes eutrophus D(S)-b-Phe consumed at t = 1 Hr / NB Culture Extract of Alcaligenes eutrophus L(R)-b-Phe consumed at t = 1 Hr: keto acceptor with or without PLP as labelled; for NB Culture Extract of Alcaligenes eutrophus D(S)-b-Phe consumed at t = 1 Hr / NB Culture Extract of Alcaligenes eutrophus L(R)-b-Phe consumed at t = 1 Hr: cells grown in NB
Protocol: Cell-free homogenates were used in assays designed to determine substrate specificity. The assays contained: 0.1-0.3 mg/ml protein, 10 mg/ml keto acceptor, 1 mg/ml amino donor, 0.1 mM pyridoxal phosphate, and 100 mM potassium phosphate, at pH 8.0. The reactions were run at 37° C. with gentle stirring for 1 hour. At 1 hour reaction time, 0.1 ml samples were withdrawn, acidified with addition of 0.1 ml 0.1N HCl, and centrifuged. The supernatant solution was collected into HPLC sample vials. Conversion of amino acid to the corresponding ketone was quantified using reverse phase HPLC. Enzymatic activity was measured as the rate of conversion of amino donor in a one hour period. In a series of reactions, the enzymatic activity was determined with the following variables: inclusion or omission of pyridoxal phosphate, using α-ketoglutarate or pyruvate as a keto acceptor, and (D)- or (L)-β-phenylalanine as amino donor.

[6] = test system: Variovorax paradoxus β-aminotransferase; experiment: Synthesis of β-amino acid from β-keto acid with Variovorax paradoxus β-aminotransferase
Protocol: as §4, §5, §1, §2
For synthesis experiments, in which β-keto acid was converted to β-amino acid, the area of the peak(s) was compared to a standard curve derived for β-phenylalanine.

[7] = sodium sulfate purified β-aminotransferase, 3 hours

SMILES: N[C@@H](Cc1ccccc1)C(=O)O [α-(L)-phenylalanine]
substrate for the enzyme (amino donor) [1]: Only β-(D)-phenylalanine and (D)-3-amino-5-phenylpenantoic acid were substrates

SMILES: NC(CC(=O)O)C1CC1 (stereo not drawn) [3-amino-3-cyclopropylpropanoic acid]
early eluting peak observed ([2]; cell lysate, 0.225 M substrate, 0.45 M alpha-ketoglutarate, pH 8.1, 18.2 hours): 99.5%
Peak consumption (later eluting peak) ([2]; cell lysate, 22 hours): 98%
Peak consumption (earlier eluting peak) ([3]; 22 hours): approximately 42%
Peak consumption (earlier eluting peak) ([3]; 22 hours, listed as 3-amino-3-cyclopropyl propanoic acid): 42%

SMILES: NC(CC(=O)O)c1ccco1 (stereo not drawn) [3-amino-3-(2-furyl)propanoic acid]
Peak consumption (earlier eluting peak) ([3]; 21 hours): 73%
Peak consumption (earlier eluting peak) ([3]; 21 hours, listed as 3-amino-3-(2-furyl) propanoic acid): 73%

Relative Activity [4]: 0%
SMILES: O=C(O)CCC(=O)CCC(=O)O [4-Ketopimelic Acid]

SMILES: NC(CC(=O)O)c1ccsc1 (stereo not drawn) [3-amino-3-(3-thienyl)propanoic acid]
Peak consumption (earlier eluting peak) ([3]; 21 hours): 82%
Peak consumption (earlier eluting peak) ([3]; 22 hours): 82%

SMILES: O=C(O)CCC(=O)C(=O)O [α-ketoglutarate]
Relative Activity [4]: 100%
MSB Culture Extract D(S)-b-Phe consumed at t = 1 Hr [5]: 0.966
MSB Culture Extract L(R)-b-Phe consumed at t = 1 Hr [5]: 6.9281
NB Culture Extract of Alcaligenes eutrophus D(S)-b-Phe consumed at t = 1 Hr [5]: 0.00
NB Culture Extract of Alcaligenes eutrophus L(R)-b-Phe consumed at t = 1 Hr [5]: 3.41

substrate for the enzyme (amino donor) [1]: substrates for the enzyme
preference of the enzyme for the enantiomer ([1]; enzyme preferring α-ketoglutarate as amino acceptor, no activity on the L-enantiomer): 100%
SMILES: N[C@@H](CC(=O)O)c1ccccc1 [β-(D)-phenylalanine, D- or (S)-3-amino-3-phenylpropionic acid]

SMILES: N[C@H](Cc1ccccc1)C(=O)O [α-(D)-phenylalanine]
substrate for the enzyme (amino donor) [1]: Only β-(D)-phenylalanine and (D)-3-amino-5-phenylpenantoic acid were substrates

Peak consumption (later eluting peak) ([2]; cell lysate, 5 hours): 50%
SMILES: NC(CC(=O)O)c1ccc2ccccc2c1 (stereo not drawn) [3-amino-3-(2-naphthyl)propanoic acid]

Relative Activity [4]: 14%
SMILES: CC(=O)C(=O)O [Pyruvic Acid]
MSB Culture Extract D(S)-b-Phe consumed at t = 1 Hr [5]: 7.789
MSB Culture Extract L(R)-b-Phe consumed at t = 1 Hr [5]: 45.1865
NB Culture Extract of Alcaligenes eutrophus D(S)-b-Phe consumed at t = 1 Hr [5]: 3.37
NB Culture Extract of Alcaligenes eutrophus L(R)-b-Phe consumed at t = 1 Hr [5]: 48.61

SMILES: CCCC(N)CC(=O)O (stereo not drawn) [3-aminohexanoic acid]
Peak consumption (later eluting peak) ([2]; cell lysate, 1 hour): >99%

Peak consumption (later eluting peak) ([2]; cell lysate, 23 hours): 82%
SMILES: N[C@H](CC(=O)O)c1ccc(F)cc1 [p-fluoro-β-phenylalanine]

SMILES: CC(C)C(N)CC(=O)O (stereo not drawn) [3-amino-4-methylpentanoic acid]
Peak consumption (later eluting peak) ([2]; cell lysate, 48 hours): 65%
Peak consumption (later eluting peak) ([2]; cell lysate, 48 hours, listed as 3-amino-4-methylpentanoic): 65%

Peak consumption (later eluting peak) ([2]; cell lysate, 5 hours): >95%
SMILES: NC(CC(=O)O)c1cccnc1 (stereo not drawn) [3-amino-3-(3-pyridyl)propanoic acid]

Relative Activity [4]: 0.6%
SMILES: O=C(O)CCCC(=O)C(=O)O [2-Oxoadipic Acid]

SMILES: N[C@H](CC(=O)O)c1ccccc1 [β-(L)-phenylalanine, L- or (R)-3-amino-3-phenylpropionic acid]
preference of the enzyme for the enantiomer ([5]; enzyme preferring pyruvic acid as amino acceptor, no activity on the D-enantiomer): 100%
substrate for the enzyme (amino donor) [1]: Only β-(D)-phenylalanine and (D)-3-amino-5-phenylpenantoic acid were substrates

Peak consumption (later eluting peak) ([2]; cell lysate, 67 hours): 99%
Peak consumption (later eluting peak) ([2]; cell lysate, 67 hours, listed as o-fluoro-α-phenylalanine): 99%
SMILES: N[C@H](CC(=O)O)c1ccccc1F [o-fluoro-β-phenylalanine]

Peak consumption (later eluting peak) ([2]; cell lysate, 5 hours): 98%
SMILES: NC(CC(=O)O)c1cc2ccccc2o1 (stereo not drawn) [3-amino-3-(2-benzofuryl))propanoic acid]

SMILES: NC(CC(=O)O)C1CCCCC1 (stereo not drawn) [3-amino-3-cyclohexylpropanoic acid]
Peak consumption (later eluting peak) ([2]; cell lysate, 2 hours): >99%

substrate for the enzyme (amino donor) [1]: substrates for the enzyme
SMILES: N[C@H](CCc1ccccc1)CC(=O)O [(D)-3-amino-5-phenylpenantoic acid, D- or (R)-3-amino-5-phenyl-pentanoic acid]

Relative Activity [4]: 0%
SMILES: O=C(O)CC(=O)CC(=O)O [1,3-Acetonedicarboxylic Acid]

Peak consumption (later eluting peak) ([2]; cell lysate, 23 hours): 80%
SMILES: COc1ccc([C@H](N)CC(=O)O)cc1 [p-methoxy-β-phenylalanine]

product stereoisomer peak observed [6, 7]: only later eluting peak was observed
β-amino acid formed, using β-phenylalanine as standard [6, 7]: approximately 0.02 mg/mL
SMILES: O=C(O)C(=O)Cc1ccccc1F [o-fluoro-phenyl-2-oxopropanoic acid]

Peak consumption (later eluting peak) ([2]; cell lysate, 23 hours): 95%
SMILES: N[C@H](CC(=O)O)c1cccc([N+](=O)[O-])c1 [m-nitro-β-phenylalanine]

SMILES: N[C@@H](CCc1ccccc1)CC(=O)O [(L)-3-amino-5-phenylpentantoic acid, L- or (S)-3-amino-5-phenyl-pentanoic acid]
substrate for the enzyme (amino donor) [1]: Only β-(D)-phenylalanine and (D)-3-amino-5-phenylpenantoic acid were substrates

Peak consumption (later eluting peak) ([2]; cell lysate, 5 hours): >99%
Peak consumption (later eluting peak) ([2]; cell lysate, 23 hours): 82%
SMILES: N[C@H](CC(=O)O)c1ccccc1 (racemic) [β-phenylalanine]
change in the concentration of the later eluting stereoisomer ([3]; after one day): no detectable change
earlier eluting peak remaining ([3]; after one day): not detectable

product stereoisomer peak observed ([6]; cell lysate, 19 hours): only later eluting peak was observed
3-aminohexanoic acid formed, using beta-phenylalanine as standard ([6]; cell lysate, approximately 50 mM substrate, approximately 60 mM glutamic acid, 19 hours): approximately 1 mg/mL
SMILES: CCCC(=O)CC(=O)O [3-Oxohexanoic acid]

Peak consumption (later eluting peak) ([2]; cell lysate, 5 hours): 58%
SMILES: NC(CC(=O)O)c1ccc(Oc2ccccc2)cc1 (stereo not drawn) [3-amino-3-(4-phenoxyphenyl)propanoic acid]

Relative Activity [4]: 6%
SMILES: O=C(O)CCC(=O)CC(=O)O [3-Oxoadipic Acid]

Peak consumption (later eluting peak) ([2]; sodium sulfate purified beta-aminotransferase, 30 minutes): 98%
Peak consumption (later eluting peak) ([2]; sodium sulfate purified beta-aminotransferase, 30 minutes, listed as p-nitro-α-phenylalanine): approximately 98%
later eluting peak remaining ([2]; sodium sulfate purified beta-aminotransferase, after 1 hour): not detected
change in the concentration of the early eluting stereoisomer ([2]; sodium sulfate purified beta-aminotransferase, after 18 hours): no detectable change
SMILES: N[C@H](CC(=O)O)c1ccc([N+](=O)[O-])cc1 [p-nitro-β-phenylalanine]

Relative Activity [4]: 54%
SMILES: O=C(O)CC(=O)C(=O)O [Oxaloacetic Acid]

Peak consumption (later eluting peak(s)) ([2]; cell lysate, 19 hours): >99%
SMILES: NC1CCCCC1C(=O)O (stereo not drawn) [2-aminocyclohexanecarboxylic acid]
